Experimental data published in patent publication US6080542A, “Plant peptide transport gene” (priority 1997, dated 2000).
Where two headings read alike, the source gives them in different places. One block for each molecule: values may come before it. Where no end group is shown, it is not given here. Eth = ethionine

Columns and labels:
[1] = molecular target: T1, yeast peptide transport system (Saccharomyces cerevisiae, UniProt P32901); experiment: Competition for L-leucyl-L-[3H]leucine uptake, PB1X-9B[pJP9]; assay type: cell-based; settings: pH 5.5
T1 construct: The ptr2 gene encodes a 602 amino acid hydrophobic polypeptide with 12 putative hydrophobic segments; expressed in transfected cells; host or cells: S. cerevisiae peptide transport mutant PB1X-9B (ptr2-2) transformed with pJP9
T1 sequence (P32901 1-601): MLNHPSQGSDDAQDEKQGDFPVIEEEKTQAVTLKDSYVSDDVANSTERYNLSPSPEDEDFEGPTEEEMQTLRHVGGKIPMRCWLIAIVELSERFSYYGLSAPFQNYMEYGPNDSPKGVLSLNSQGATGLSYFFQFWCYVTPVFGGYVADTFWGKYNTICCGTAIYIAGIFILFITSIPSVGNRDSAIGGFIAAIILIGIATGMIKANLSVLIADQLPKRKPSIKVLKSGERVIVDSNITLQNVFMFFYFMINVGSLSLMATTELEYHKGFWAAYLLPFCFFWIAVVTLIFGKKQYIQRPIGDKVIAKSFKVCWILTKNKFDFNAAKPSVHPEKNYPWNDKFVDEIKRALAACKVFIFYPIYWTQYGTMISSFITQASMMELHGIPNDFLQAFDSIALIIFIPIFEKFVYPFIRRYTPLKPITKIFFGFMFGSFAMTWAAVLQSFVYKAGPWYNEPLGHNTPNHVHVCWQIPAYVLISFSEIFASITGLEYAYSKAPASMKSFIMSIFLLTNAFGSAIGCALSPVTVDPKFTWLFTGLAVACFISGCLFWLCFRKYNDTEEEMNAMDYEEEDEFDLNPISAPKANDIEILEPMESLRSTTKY
Protocol: (§1) L-leucyl-L [^3 H]leucine trifluoroacetic acid (TFA) was synthesized by standard solution phase techniques (Naider, F. et al., J. Biol. Chem. 249:9-20 (1974)). Uptake of L-leucyl-L-[H]leucine was performed as by Island, M. D. et al (J. Bacteriol. 169:2132-2136 (1987)), with the following modifications. Cells were grown to late log phase (26×10^7 cells/ml) overnight in SC with 2% glucose, 1 mg/ml allantoin plus amino acids to supplement auxotrophic markers. To induce peptide transport. 5-15 ml from this culture was added to 100 ml fresh medium such that the density was 3.0×10^6 cells/ml. This culture was allowed to grow (approx. 2 hrs.) to a density of 6.0×10^6 cells/ml and then harvested by centrifugation. The pelleted cells were washed twice with 10 ml cold dH2 O and suspended in cold 2% glucose to a final concentration of 2×10^8 cells/ml and incubated at 30° C. for 15 min. 500 μl of cells were then added to an equal volume of reaction mixture (30° C.) and incubated at 30°-C. At 20, 40, 60, 90, and 120 sec. intervals, 190 μl portions were removed, filtered over filters (pore size, 0.45 μm; GN-6; Gelman Sciences, Inc., Ann Arbor, Mich.) and washed 2 times with 5 ml cold, sterile dH2 O and once with 5 ml dH2 O at room temperatures. Filters were placed in scintillation vials with 5 ml of Budget-Solve scintillation cocktail (Research Products International Corp., Mount Prospect, Ill.) and counted (liquid scintillation counter; LS-7000; Beckman Instruments, Inc., Fullerton, Calif.). The final concentration of the components in the uptake assay was 1% glucose, 40 mM sodium citrate-potassium phosphate buffer (pH 5.5), and 1.5×105 M L-leucyl-L-[^3 H]leucine (specific activity, 10 mCi/mmole). Uptake is expressed as nanomoles per mg dry weight.

[2] = system: A. thaliana seedlings; experiment: Root assay, toxic peptide plus competitor peptide; assay type: in vivo, Arabidopsis thaliana
Protocol: (§2) Approximately 15 A. thaliana seeds were placed in a row at one end of 10 cm plate containing 20 ml of Arabidopsis growth media (Kranz and Kirchheim 1987). The seeds were incubated 3-5 days in the light with the plate set in an upright position. When the roots were approximately 1-2 cm long, sterile paper filter disks were placed immediately in front of the root tips on the right and left side of the plate 2 cm from the edge of the plate. A line was drawn across the plate using the top of the disks as a guide marking zero growth. 5 μl of toxic amino acid analog, toxic peptide, or toxic peptide plus competitor was added to one disk while H2 O was place on the other disk. The plates were incubated for an additional 3-5 days. The average length of the roots was measured from the line and the results expressed as a percentage of control root growth.

[3] = system: ATPTR2Ap; experiment: Uptake of L-leucyl-L-[3H]leucine and competition, PB1X-9B[pPTF4]; settings: for competition for uptake of [3H]-dileucine: PB1X-9B[pPTF4], pH 5.5, dileucine and leucine at 100-fold; for uptake of radiolabeled dileucine: PB1X-9B transformed with pPTF4, compared with wild type, trifluoroacetic acid (TFA)
Protocol: The kinetics of ATPTR2A-mediated transport of peptides in yeast was evaluated by transforming pPTF4 into the S. cerevisiae peptide transport mutant, PB1X-9B and measuring the uptake of tritiated Leu-Leu dipeptide.
as §1

[4] = system: A. thaliana seeds; experiment: Seed germination with toxic peptides (minimum inhibitory concentration); assay type: in vivo, Arabidopsis thaliana
Protocol: (§3) Thus, A. thaliana seeds and seedlings were exposed to Ethionine, Ala-Eth, Leu-Eth, Leu-fluorophenylalanine or oxalysine containing peptides, and the minimum inhibitory concentrations (MIC) were determined for each of the toxic compounds.
To measure the minimum inhibitory concentration of the toxic peptides, 10 to 15 A. thaliara seeds were place on solid Arabidopsis growth media with decreasing concentrations of toxic peptide. The seeds were incubated for 4 days in the dark and then scored for germination.

[5] = system: PB1X-9B (pPTF4); experiment: Toxic peptide disk assay, mutant with plant gene ATPTR2A; assay type: cell-based, Saccharomyces cerevisiae; settings: for diameter of zone of inhibition: disk with 0.38 μmoles, lawn of 5×10^6 cells, 30° C., 1 to 2 days, mean ± standard error
Protocol: (§4) Since ptr mutants are deficient in peptide transport, they are unable to take up toxic peptides. This inability renders such mutants resistant to the toxic effect of the peptides. In order to determine whether the polynucleotides of the present invention could restore toxic peptide sensitivity to ptr2 mutants, the sensitivity of plasmid-transformed cells was determined. Sensitivity to toxic amino acids and peptides was measured as described by Island, M. D. et al. (J. Bacteriol. 169:2132-2136 (1987)). Briefly, a filter disk containing 0.38 μmoles of the toxic compound was placed on a lawn containing 5×10^6 cells and the plate incubated at 30° C. for 1 to 2 days. Resulting halos were measured across their diameter. The toxic dipeptides Leu-Eth, Ala-Eth, Leu-F-Phe and Oxalysine were synthesized by standard solution phase techniques (Naider, F. et al., J. Biol. Chem. 249:9-20 (1974). The results of this experiment are shown in Table 2 (values are the mean of the diameters of the observed zone of inhibition in millimeters±standard error of the mean of at least two independent experiments).

[6] = system: A. thaliana seedlings; experiment: Root elongation of seedlings exposed to toxic peptides; assay type: in vivo, Arabidopsis thaliana
Protocol: as §3, §2

[7] = system: PB1X-9B (pJP9); experiment: Toxic peptide disk assay, mutant with yeast peptide transport gene; assay type: cell-based, Saccharomyces cerevisiae; settings: for diameter of zone of inhibition: disk with 0.38 μmoles, lawn of 5×10^6 cells, 30° C., 1 to 2 days, mean ± standard error
Protocol: as §4

[8] = system: S. cerevisiae strains tested; experiment: Toxic peptide disk assay, statements covering several strains; assay type: cell-based, Saccharomyces cerevisiae; settings: wild type (S288C) and transformants
Protocol: as §4

[9] = system: S288C; experiment: Toxic peptide disk assay, wild type; assay type: cell-based, Saccharomyces cerevisiae; settings: for diameter of zone of inhibition: disk with 0.38 μmoles, lawn of 5×10^6 cells, 30° C., 1 to 2 days, mean ± standard error
Protocol: as §4

[10] = system: PB1X-9B; experiment: Toxic peptide disk assay, peptide transport mutant; assay type: cell-based, Saccharomyces cerevisiae
Protocol: as §4

[11] = system: PB1X-9B(pJP2); experiment: Dipeptide utilization, L-alanyl-L-ethionine sensitivity and dileucine transport of secondary transformants; assay type: cell-based, Saccharomyces cerevisiae; settings: compared with wild type
Protocol: Plasmid pJP2 was then reintroduced into PB1X-9B. The resulting secondary yeast transformants were tested for the ability to use a variety of dipeptides as sources of amino acids and for sensitivity to the toxic dipeptide L-alanyl-L-ethionine. Thus, strains were grown in YEPG broth at 30° C. to a titer of 10^8 cells per ml. The cells were harvested by centrifugation, washed twice with sterile water and resuspended at 1.0×10^7 cells per ml. A 5-μl aliquot was applied to solid MM containing dipeptides and amino acids as required. Four types of solid media were routinely used in assessing dipeptide utilization: MM+L-leucyl-L-leucine-L-lysine+L-histidine, MM-L-lysI-L-lysine-L-leucine-L-histidine (SEQ ID NO:12), MM-L-lysl-L-leucine-L-histidine, and MM-L-histydyl-L-leucine-L-lysine. All dipeptides were present at a concentration of 80 μM, while amino acids and nucleotide bases were added as required at standard concentrations (Sherman, F. et al., In: Methods in Yeast Genetics, Cold Spring Harbor Laboratory, Clod Spring Harbor, N.Y. (1986)). The plates were incubated at 30° C. for 48 hours and then scored for growth.

[12] = molecular target: T2, Lys-Leu-Leu-Ala-Eth; experiment: cell-based or functional assay
T2 peptide: KLLA-Eth

[13] = molecular target: T3, Lys-Leu-Leu-Leu-Eth; experiment: cell-based or functional assay
T3 peptide: KLLL-Eth

[14] = molecular target: Lys-Ala-Eth
[15] = molecular target: Lys-Leu-Leu-Eth
[16] = molecular target: Leu-Eth
[17] = molecular target: L-alanyl-L-ethionine
[18] = molecular target: Lys-Leu-Eth
[19] = molecular target: Leu-F-Phe
[20] = molecular target: Lys-Leu-Ala-Eth

Molecule: tri-Ala: competitor tripeptide
competition for uptake of [3H]-dileucine [1]: uptake competition similar to that seen for Leu-Leu
reversal of toxicity by competitor (in words) ([2]; toxic peptide Ala-Eth): unable to reverse the inhibition
root growth with toxic peptide plus competitor ([2]; toxic peptide Ala-Eth): 0 percentage of control root gro
reversal of toxicity by competitor (in words) ([2]; toxic peptide Leu-Eth): unable to reverse the inhibition
competition for uptake of [3H]-dileucine [3]: uptake competition similar to that seen for Leu-Leu

Molecule: Leu-fluorophenylalanine [Leu-F-Phe]
amount that inhibits germination of seeds ([4]; A. thaliana seeds): not inhibited
sensitivity or resistance to toxic compound [5]: restores sensitivity
diameter of zone of inhibition [5]: 37.0 ± 1.0 millimeters
sensitivity or resistance to toxic compound ([5]; listed as leucine-fluorophenylaianine): greater and more complete sensitivity
amount that inhibits root elongation of seedlings [6]: not inhibited
appearance of halo [7]: hazy background within the halo
diameter of zone of inhibition [7]: 20.5 ± 3.0 millimeters
sensitivity to toxic compound [8]: less sensitive
appearance of halo [9]: hazy background within the halo
diameter of zone of inhibition [9]: 28.0 ± 4.0 millimeters

Molecule: CCSCC[C@H](N)C(=O)O [Eth, ethionine]
root length at which growth was arrested ([4]; seeds exposed to the toxic compound): 1-2 mm
sensitivity or resistance to toxic compound [5]: sensitive
diameter of zone of inhibition [5]: 46.5 ± 0.5 millimeters
sensitivity or resistance to toxic compound [10]: sensitive
diameter of zone of inhibition ([10]; disk with 0.38 μmoles, lawn of 5×10^6 cells, 30° C., 1 to 2 days, mean ± standard error): 44.5 ± 3.5 millimeters
diameter of zone of inhibition [7]: 46.5 ± 1.5 millimeters
sensitivity to toxic compound [8]: most sensitive
diameter of zone of inhibition [9]: 39.0 ± 3.0 millimeters

Molecule: L-leucyl-L [^3 H]leucine trifluoroacetic acid (TFA) [[H^3]-dileucine]
transport of radiolabeled dileucine [11]: levels approximating those of the wild type
uptake of radiolabeled dileucine ([3]; listed as radiolabeled dileucine): comparable to that of wild type
uptake of radiolabeled dileucine [3]: wild-type levels

competition for uptake of [3H]-dileucine [1]: able to compete
Molecule: NCC(=O)CCC(=O)O [ALA, γ-aminolevulinic acid]
reversal of toxicity by competitor (in words) ([2]; toxic peptide Ala-Eth): unable to reverse the inhibition
root growth with toxic peptide plus competitor ([2]; toxic peptide Ala-Eth): 0 percentage of control root gro
reversal of toxicity by competitor (in words) ([2]; toxic peptide Leu-Eth): unable to reverse the inhibition
root growth with toxic peptide plus competitor ([2]; toxic peptide Leu-Eth): 0 percentage of control root gro
competition for uptake of [3H]-dileucine [3]: lack of inhibition
competition for uptake of [3H]-dileucine ([3]; listed as γ-aminolevulinic acid): did not compete

diameter of the zone of inhibition, disk assay with 0.38 µmoles [12]: 0 mm
diameter of the zone of inhibition, disk assay with 0.38 µmoles [13]: 0 mm
diameter of the zone of inhibition, disk assay with 0.38 µmoles [14]: 36 mm
diameter of the zone of inhibition, disk assay with 0.38 µmoles [15]: 0 mm
diameter of the zone of inhibition, disk assay with 0.38 µmoles [16]: 47 mm
diameter of the zone of inhibition, disk assay with 0.38 µmoles [17]: 42.5 mm
diameter of the zone of inhibition, disk assay with 0.38 µmoles [18]: 36 mm
diameter of the zone of inhibition, disk assay with 0.38 µmoles [19]: 20.5 mm
diameter of the zone of inhibition, disk assay with 0.38 µmoles [20]: 0 mm
B1: yeast peptide transporter SACPTR2p (other)
chain: MLNHPSQGSDDAQDEKQGDFPVIEEEKTQAVTLKDSYVSDDVANSTERYNLSPSPEDEDFEGPTEEEMQTLRHVGGKIPMRCWLIAIVELSERFSYYGLSAPFQNYMEYGPNDSPKGVLSLNSQGATGLSYFFQFWCYVTPVFGGYVADTFWGKYNTICCGTAIYIAGIFILFITSIPSVGNRDSAIGGFIAAIILIGIATGMIKANLSVLIADQLPKRKPSIKVLKSGERVIVDSNITLQNVFMFFYFMINVGSLSLMATTELEYHKGFWAAYLLPFCFFWIAVVTLIFGKKQYIQRPIGDKVIAKSFKVCWILTKNKFDFNAAKPSVHPEKNYPWNDKFVDEIKRALAACKVFIFYPIYWTQYGTMISSFITQASMMELHGIPNDFLQAFDSIALIIFIPIFEKFVYPFIRRYTPLKPITKIFFGFMFGSFAMTWAAVLQSFVYKAGPWYNEPLGHNTPNHVHVCWQIPAYVLISFSEIFASITGLEYAYSKAPASMKSFIMSIFLLTNAFGSAIGCALSPVTVDPKFTWLFTGLAVACFISGCLFWLCFRKYNDTEEEMNAMDYEEEDEFDLNPISAPKANDIEILEPMESLRSTTKY
